{
  "source": "patent US20130011845A1",
  "about": "“MICRORNA REGULATING THE INSULIN SIGNALING PATHWAY, AND METHOD FOR SCREENING MATERIAL FOR CONTROLLING THE ACTION OF A TARGET THEREOF” (SNU R & DB Foundation, priority 2009, published 2013)",
  "key": {"ELMO2 3′UTR": {"system": "ELMO2 3′UTR", "assay": "dual-luciferase 3′UTR reporter assay, pAC-ELMO2", "assay_type": "cell-based", "details": "luciferase reporter with ELMO2 3′UTR, human Hela cell lines; average of at least two independent experiments", "description": "(§1) In order to determine whether the target genes identified in Example 7 are in actuality targets of miR-8 and miR-200 family miRNAs, the inventors performed cloning. In other words, […] containing the miRNA target sites. Specifically, in order to obtain cDNAs of respective target genes, from drosophila S2 cell lines or human Hela cell lines, total RNA was extracted by using RNeasy mini kit (QIAGEN, US). 1 μg of total RNA and 1 μl of Oligo-dT (Invitrogen, US) were charged with up to 50 μl of distilled water, and placed into SuperScript First-Strand Synthesis System (Invitrogen, US), followed by RT-PCR reaction. Through the reaction at 65° C. for 6 min, at 4° C. for 5 min, at 42° C. for 60 min, at 95° C. for 5 min, and at 4° C. for 5 min, cDNA was synthesized. By using the cDNA (3˜5 μg) as template, and using a primer pair on respective genes noted in Table 3 and PCR Mastermix (Promega, US), PCR was performed on 3′UTR of ush, Lap1, CG8445, dbo, Lar, Ced-12, CG12333, cbt, FOG2, SEPT7, RIN2, SHC1, HOXB5, LF11, TCF7L1, ERBB21P, ELMO2, BAP1, WDR37, KLHL20, PTPRD, RASSF2 and VAC14 from among the target genes selected in Example 7. Herein, PCRP on atro as a drosophila control gene was also performed. After the reaction was completed, the PCR product on each gene's 3′UTR region was cleaved by each of the following restriction enzymes:\n(§2) Then, it was cloned into pAC5.1 luciferase vector (a kind gift of Elisa Izaurralde) cleaved by the same restriction enzymes so as to produce a reporter plasmid having a miR-8 or miR-200 family target sequence in luciferase gene's 3′UTR sequence.\n(§3) Reporter plasmids and renilla luciferase expression vectors (Promega, US), as noted in Table 4, and miRNAs of miR-200 family of miR-141, miR-200a (hsa-miR-200a, SEQ ID: 87: 5′-[…]-3′), miR-200b, miR-200c (has-miR-200c, SEQ ID: 88: 5′-[…]-3′) and miR-429, and miR-8 (dme-miR-8, SEQ ID: 89: 5′-[…]-3′) were bought from Samchonri and cotransfected into drosophila S2 cell lines or human Hela cell lines. Then, the activities of luciferase were measured through dual-luciferase assay (Promega, US) by a luminometer (Biorad). Then, 7 gene pairs that respond both to miR-8 and to mir-200 family miRNAs in Drosophila and human cells, respectively were identified (see FIG. 15)."}, "RIN2 3′UTR": {"system": "RIN2 3′UTR", "assay": "dual-luciferase 3′UTR reporter assay, pAC-RIN2", "assay_type": "cell-based", "details": "luciferase reporter with RIN2 3′UTR, human Hela cell lines; average of at least two independent experiments", "description": "as §1, §2, §3"}, "RASSF2 3′UTR": {"system": "RASSF2 3′UTR", "assay": "dual-luciferase 3′UTR reporter assay, pAC-RASSF2", "assay_type": "cell-based", "details": "luciferase reporter with RASSF2 3′UTR, human Hela cell lines; average of at least two independent experiments", "description": "as §1, §2, §3"}, "SHC1 3′UTR": {"system": "SHC1 3′UTR", "assay": "dual-luciferase 3′UTR reporter assay, pAC-SHC1", "assay_type": "cell-based", "details": "luciferase reporter with SHC1 3′UTR, human Hela cell lines; average of at least two independent experiments", "description": "as §1, §2, §3"}, "FOG2 3′UTR": {"system": "FOG2 3′UTR", "assay": "dual-luciferase 3′UTR reporter assay, pAC-FOG2", "assay_type": "cell-based", "details": "luciferase reporter with FOG2 3′UTR, human Hela cell lines; average of at least two independent experiments", "description": "as §1, §2, §3"}, "WDR37 3′UTR": {"system": "WDR37 3′UTR", "assay": "dual-luciferase 3′UTR reporter assay, pAC-WDR37", "assay_type": "cell-based", "details": "luciferase reporter with WDR37 3′UTR, human Hela cell lines; average of at least two independent experiments", "description": "as §1, §2, §3"}, "VAC14 3′UTR": {"system": "VAC14 3′UTR", "assay": "dual-luciferase 3′UTR reporter assay, pAC-VAC14", "assay_type": "cell-based", "details": "luciferase reporter with VAC14 3′UTR, human Hela cell lines; average of at least two independent experiments", "description": "as §1, §2, §3"}, "MCF-7 cell lines": {"system": "MCF-7 cell lines", "assay": "cell proliferation by counting the number of cells", "assay_type": "cell-based, human", "details": "MCF-7 cell lines transduced; counted on day 1, 4, 5, 6, 7 and 8; compared to untreated or siGFP cells", "from_the_text": "It has been known that when human miRNAs, that is, miR-200 family (miR-200a, miR-200b, miR-200c, miR-141, and miR-429) are transduced into human cell lines, cell growth is promoted (Park, S Y et al., 2009, Nat Struct Mol Biol 16, 23-29). In MCF-7 cell lines not treated with anything, and MCF-7 cell lines transduced with siRNA targeting GFP (siGFP, SEQ ID: 1: 5′-UGAAUUAGAUGGCGAUGUU-3′, Samchonri), miR-200 family [miR-141(has-miR-141, SEQ ID: 2: 5′-[…]-3′), miR-200b (has-miR-200b, SEQ ID: 3: 5′-[…]-3′), miR-429(has-miR-429, SEQ ID: 4: 5′-[…]-3′)] and miR-29b (known to inhibit cell proliferation), on day 1, 4, 5, 6, 7 and 8, the inventors counted the number of cells and measured cell proliferation."}},
  "data": [
    {"substance": "5′-UAACACUGUCUGGUAACGAUGU-3′ (listed as RNA, chemistry not given here) [miR-200a]", "values": [
      {"measurement": "Represion fold, ELMO2", "setting": "ELMO2 3′UTR", "result": 1.22, "unit": "fold"},
      {"measurement": "Represion fold, RIN2", "setting": "RIN2 3′UTR", "result": 2.49, "unit": "fold"},
      {"measurement": "Represion fold, RASSF2", "setting": "RASSF2 3′UTR", "result": 1.36, "unit": "fold"},
      {"measurement": "Represion fold, SHC1", "setting": "SHC1 3′UTR", "result": 1.63, "unit": "fold"},
      {"measurement": "Represion fold, FOG2", "setting": "FOG2 3′UTR", "result": 0.64, "unit": "fold"},
      {"measurement": "Represion fold, WDR37", "setting": "WDR37 3′UTR", "result": 0.76, "unit": "fold"},
      {"measurement": "Represion fold, VAC14", "setting": "VAC14 3′UTR", "result": 1.19, "unit": "fold"}
    ]},
    {"substance": "5′-UAAUACUGUCUGGUAAAACCGU-3′ (listed as RNA, chemistry not given here) [miR-429]", "values": [
      {"measurement": "Represion fold, ELMO2", "setting": "ELMO2 3′UTR", "result": 0.89, "unit": "fold"},
      {"measurement": "Represion fold, RIN2", "setting": "RIN2 3′UTR", "result": 1.41, "unit": "fold"},
      {"measurement": "Represion fold, RASSF2", "setting": "RASSF2 3′UTR", "result": 1.01, "unit": "fold"},
      {"measurement": "Represion fold, SHC1", "setting": "SHC1 3′UTR", "result": 2.17, "unit": "fold"},
      {"measurement": "Represion fold, FOG2", "setting": "FOG2 3′UTR", "result": 0.47, "unit": "fold"},
      {"measurement": "Represion fold, WDR37", "setting": "WDR37 3′UTR", "result": 1.31, "unit": "fold"},
      {"measurement": "cell proliferation (number of cells)", "setting": "MCF-7 cell lines", "result": "increased cell proliferation"},
      {"measurement": "Represion fold, VAC14", "setting": "VAC14 3′UTR", "result": 1.17, "unit": "fold"}
    ]},
    {"substance": "5′-UAACACUGUCUGGUAAAGAUGG-3′ (listed as RNA, chemistry not given here) [miR-141]", "values": [
      {"measurement": "Represion fold, ELMO2", "setting": "ELMO2 3′UTR", "result": 0.73, "unit": "fold"},
      {"measurement": "Represion fold, RIN2", "setting": "RIN2 3′UTR", "result": 1.10, "unit": "fold"},
      {"measurement": "Represion fold, RASSF2", "setting": "RASSF2 3′UTR", "result": 0.90, "unit": "fold"},
      {"measurement": "Represion fold, SHC1", "setting": "SHC1 3′UTR", "result": 1.64, "unit": "fold"},
      {"measurement": "Represion fold, FOG2", "setting": "FOG2 3′UTR", "result": 0.59, "unit": "fold"},
      {"measurement": "Represion fold, WDR37", "setting": "WDR37 3′UTR", "result": 1.07, "unit": "fold"},
      {"measurement": "cell proliferation (number of cells)", "setting": "MCF-7 cell lines", "result": "increased cell proliferation"},
      {"measurement": "Represion fold, VAC14", "setting": "VAC14 3′UTR", "result": 0.99, "unit": "fold"}
    ]},
    {"substance": "5′-UAAUACUGCCUGGUAAUGAUGA-3′ (listed as RNA, chemistry not given here) [miR-200b]", "values": [
      {"measurement": "Represion fold, ELMO2", "setting": "ELMO2 3′UTR", "result": 1.04, "unit": "fold"},
      {"measurement": "Represion fold, RIN2", "setting": "RIN2 3′UTR", "result": 1.91, "unit": "fold"},
      {"measurement": "Represion fold, RASSF2", "setting": "RASSF2 3′UTR", "result": 1.28, "unit": "fold"},
      {"measurement": "Represion fold, SHC1", "setting": "SHC1 3′UTR", "result": 1.41, "unit": "fold"},
      {"measurement": "Represion fold, FOG2", "setting": "FOG2 3′UTR", "result": 0.37, "unit": "fold"},
      {"measurement": "Represion fold, WDR37", "setting": "WDR37 3′UTR", "result": 1.16, "unit": "fold"},
      {"measurement": "cell proliferation (number of cells)", "setting": "MCF-7 cell lines", "result": "increased cell proliferation"},
      {"measurement": "Represion fold, VAC14", "setting": "VAC14 3′UTR", "result": 1.20, "unit": "fold"}
    ]}
  ]
}
